The values that follow come from ChEMBL document CHEMBL1201862, “PubChem BioAssay data set” (2004).

One may read the IC50 as the concentration that inhibits the measured activity by half. Broadly, the EC50 is the concentration that produces a half-maximal response. As a reminder, the AC50 is the concentration at which the activity in the assay is half-maximal.

SMILES strings stand for the structures. Activity calls are given as the source filed them. Bounds are passed on as bounds.

A short description of assay [1]: antiviral protection against BTV-induced cell death – arbovirus, BSR cells, confirmation (AID 1250).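 Also: protection from viral cytopathic effect measured as cell viability by ATP luminescence.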 It counts as functional.
For another assay, the target named is T1, Estrogen receptor (Homo sapiens, UniProt P03372).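 Also: potency for inhibiting coactivator peptide recruitment to the receptor.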
T1 sequence (P03372 whole entry): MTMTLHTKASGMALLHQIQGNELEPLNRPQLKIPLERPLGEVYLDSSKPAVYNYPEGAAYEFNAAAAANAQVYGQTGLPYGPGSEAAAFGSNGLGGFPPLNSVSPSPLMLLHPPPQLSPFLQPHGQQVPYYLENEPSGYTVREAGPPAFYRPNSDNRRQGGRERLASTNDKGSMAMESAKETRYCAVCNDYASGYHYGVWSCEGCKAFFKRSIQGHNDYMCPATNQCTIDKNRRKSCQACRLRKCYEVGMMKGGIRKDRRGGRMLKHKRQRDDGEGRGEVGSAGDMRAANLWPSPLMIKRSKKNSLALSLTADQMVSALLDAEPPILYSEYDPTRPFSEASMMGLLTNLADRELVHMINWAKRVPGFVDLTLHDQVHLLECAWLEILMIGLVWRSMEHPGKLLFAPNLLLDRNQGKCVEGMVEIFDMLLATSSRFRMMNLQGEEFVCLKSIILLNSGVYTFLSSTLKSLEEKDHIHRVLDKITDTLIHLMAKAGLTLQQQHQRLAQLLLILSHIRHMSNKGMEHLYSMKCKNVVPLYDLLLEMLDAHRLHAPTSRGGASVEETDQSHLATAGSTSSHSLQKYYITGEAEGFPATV

The target of assay [2] is T2, Mannose-6-phosphate isomerase (Homo sapiens, UniProt P34949).
T2 sequence (P34949 whole entry): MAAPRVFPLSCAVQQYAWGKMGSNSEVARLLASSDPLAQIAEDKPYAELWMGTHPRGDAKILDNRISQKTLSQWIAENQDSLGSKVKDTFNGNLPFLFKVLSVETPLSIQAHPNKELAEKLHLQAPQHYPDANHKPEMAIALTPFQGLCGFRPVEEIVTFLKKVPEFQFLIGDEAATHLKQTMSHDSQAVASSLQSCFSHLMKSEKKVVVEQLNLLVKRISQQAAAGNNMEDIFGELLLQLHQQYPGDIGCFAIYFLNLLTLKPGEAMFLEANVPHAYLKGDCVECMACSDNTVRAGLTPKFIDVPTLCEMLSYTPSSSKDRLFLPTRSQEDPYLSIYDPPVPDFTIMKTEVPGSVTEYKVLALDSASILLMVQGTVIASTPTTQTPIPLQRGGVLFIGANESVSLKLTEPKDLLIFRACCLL
Put plainly: MPI enzyme activity inhibition – biochemical, fluorescence intensity, coupled assay, primary screen (AID 1209).

Assay [3] concerns BJ. Put plainly: BJ-TERT fibroblast viability loss – cell-based, RAS-independent, luminescence, dose response (AID 1933). It counts as functional. The note with it: Homo sapiens.
Assay [4] relates to BJ. Put plainly: cells. The class given is functional, cell-based. The note with it: Homo sapiens.
Assay [5] concerns the target Luciferin 4-monooxygenase (Photinus pyralis, UniProt P08659). Put plainly: inhibition of purified Photinus pyralis luciferase – biochemical, luminescence, dose response (AID 1891).
A short description of assay [6]: Luminescence Cell-Based Dose Confirmation HTS to Identify Inhibitors of Platelet Dense Granule Release. [Related pubchem assays: 1663 (Primary HTS), 1678 (Summary of Project)]. The class given is functional.
Assay [7] can be described thus: Luminescence-based counterscreen assay for KLF5 inhibitors: dose response cell-based high throughput screening assay to identify cytotoxic compounds using the IEC-6 intestinal epithelial cell line. [Related pubchem assays: 1700 (Primary screen.), 1834 (Confirmation screen.), 1858 (Summary AID.), 1905 (Counterscreen.)]. The class given is functional. A general note: A counterscreen serves to expose hits that act by an unwanted route or on another target.

Assay [8] has as its system BJ. Put plainly: BJ-TERT-LT-ST fibroblast viability loss – cell-based, RAS-independent, luminescence, dose response (AID 1935).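 Also: BJ fibroblasts immortalized with TERT plus LT and ST oncogenes.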 The note with it: Homo sapiens. The class given is functional.
Assay [9] in a line: DRD fibroblast viability loss – cell-based, non-viral oncogenic, luminescence, dose response (AID 1934). The class given is functional. The note with it: Homo sapiens.
Assay [10] is described as follows: cells. The class given is functional, cell-based.
Assay [11] addresses T3, Nuclear receptor subfamily 0 group B member 1 (Homo sapiens, UniProt P51843).
T3 sequence (P51843 whole entry): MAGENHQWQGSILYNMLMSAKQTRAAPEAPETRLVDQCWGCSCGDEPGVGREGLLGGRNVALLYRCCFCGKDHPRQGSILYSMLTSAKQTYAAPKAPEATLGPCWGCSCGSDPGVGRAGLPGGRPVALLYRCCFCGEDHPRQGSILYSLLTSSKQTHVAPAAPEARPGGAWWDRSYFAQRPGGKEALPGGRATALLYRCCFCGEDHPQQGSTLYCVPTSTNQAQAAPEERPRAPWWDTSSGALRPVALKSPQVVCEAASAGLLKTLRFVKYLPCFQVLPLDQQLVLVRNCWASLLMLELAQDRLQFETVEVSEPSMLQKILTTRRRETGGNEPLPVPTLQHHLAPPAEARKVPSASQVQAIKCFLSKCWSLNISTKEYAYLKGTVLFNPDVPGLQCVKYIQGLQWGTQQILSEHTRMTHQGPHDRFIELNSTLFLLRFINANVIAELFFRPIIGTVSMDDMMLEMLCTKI
The class given is functional, cell-based.

Assay [12] deals with T4, Oxysterols receptor LXR-beta (Homo sapiens, UniProt P55055).
T4 sequence (P55055 whole entry): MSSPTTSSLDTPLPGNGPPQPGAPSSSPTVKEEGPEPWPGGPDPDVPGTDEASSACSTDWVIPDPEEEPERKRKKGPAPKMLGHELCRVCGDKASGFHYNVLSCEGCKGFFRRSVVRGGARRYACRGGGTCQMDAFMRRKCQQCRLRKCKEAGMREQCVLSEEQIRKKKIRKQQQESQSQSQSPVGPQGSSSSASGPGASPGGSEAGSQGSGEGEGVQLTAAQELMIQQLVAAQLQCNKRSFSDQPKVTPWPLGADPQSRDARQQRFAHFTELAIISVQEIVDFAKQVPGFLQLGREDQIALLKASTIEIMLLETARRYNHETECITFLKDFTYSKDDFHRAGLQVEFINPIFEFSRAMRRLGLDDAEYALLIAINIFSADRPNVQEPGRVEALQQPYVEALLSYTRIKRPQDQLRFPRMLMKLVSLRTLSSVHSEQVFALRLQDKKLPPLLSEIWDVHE
The class given is functional, cell-based.

Assay [13] can be described thus: cells.
The target in the next assay is T5, Aspartyl aminopeptidase (Plasmodium falciparum 3D7, UniProt Q8I2J3).
T5 sequence (Q8I2J3 whole entry): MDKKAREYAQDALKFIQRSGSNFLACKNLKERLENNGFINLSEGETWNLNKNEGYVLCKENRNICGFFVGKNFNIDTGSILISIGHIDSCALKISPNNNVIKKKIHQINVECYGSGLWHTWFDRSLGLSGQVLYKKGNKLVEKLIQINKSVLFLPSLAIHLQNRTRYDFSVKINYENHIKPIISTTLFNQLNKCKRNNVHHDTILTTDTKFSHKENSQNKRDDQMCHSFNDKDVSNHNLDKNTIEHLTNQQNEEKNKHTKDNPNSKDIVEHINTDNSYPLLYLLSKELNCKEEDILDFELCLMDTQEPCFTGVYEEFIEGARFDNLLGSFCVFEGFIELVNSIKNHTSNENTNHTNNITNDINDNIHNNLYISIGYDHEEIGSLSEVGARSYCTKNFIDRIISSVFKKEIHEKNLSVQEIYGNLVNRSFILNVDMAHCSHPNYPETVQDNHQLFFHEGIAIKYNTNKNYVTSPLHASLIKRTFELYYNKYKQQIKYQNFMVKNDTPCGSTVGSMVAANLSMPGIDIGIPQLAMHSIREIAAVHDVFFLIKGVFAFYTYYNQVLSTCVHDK

The next assay concerns the target Procathepsin L (Homo sapiens, UniProt P07711).
The target in assay [14] is Glyceraldehyde-3-phosphate dehydrogenase (Homo sapiens, UniProt P04406).
For a further assay, the target named is T6, Cytochrome P450 1A2 (Homo sapiens, UniProt P05177).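 Also: PubChem cytochrome P450 panel assay, CYP1A2 panel member.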
T6 sequence (P05177 whole entry): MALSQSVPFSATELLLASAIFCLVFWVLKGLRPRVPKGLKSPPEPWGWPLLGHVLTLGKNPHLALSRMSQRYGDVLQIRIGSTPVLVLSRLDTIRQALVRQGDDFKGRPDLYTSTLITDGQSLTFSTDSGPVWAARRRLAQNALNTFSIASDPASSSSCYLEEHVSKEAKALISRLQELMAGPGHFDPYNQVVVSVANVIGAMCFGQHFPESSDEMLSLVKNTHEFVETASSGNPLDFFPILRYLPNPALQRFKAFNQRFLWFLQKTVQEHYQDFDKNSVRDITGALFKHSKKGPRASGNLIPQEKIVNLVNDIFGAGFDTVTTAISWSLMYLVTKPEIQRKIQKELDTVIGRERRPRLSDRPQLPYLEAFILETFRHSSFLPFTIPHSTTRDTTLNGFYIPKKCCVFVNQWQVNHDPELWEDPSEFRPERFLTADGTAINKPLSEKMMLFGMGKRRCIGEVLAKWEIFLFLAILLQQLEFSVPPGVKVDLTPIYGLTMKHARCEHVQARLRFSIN

The next assay addresses Cytochrome P450 3A4 (Homo sapiens, UniProt P08684).
The target in another assay is Cytochrome P450 2C9 (Homo sapiens, UniProt P11712).
A short description of assay [15]: cells. The source holds these as a separate data set.
The target in assay [16] is Alkaline phosphatase, placental type (Homo sapiens, UniProt P05187). Put plainly: human placental alkaline phosphatase inhibition – biochemical, luminescence, confirmation (AID 1512). The class given is functional.
Assay [17] has as its target T7, Alkaline phosphatase, tissue-nonspecific isozyme (Homo sapiens, UniProt P05186).
T7 sequence (P05186 whole entry): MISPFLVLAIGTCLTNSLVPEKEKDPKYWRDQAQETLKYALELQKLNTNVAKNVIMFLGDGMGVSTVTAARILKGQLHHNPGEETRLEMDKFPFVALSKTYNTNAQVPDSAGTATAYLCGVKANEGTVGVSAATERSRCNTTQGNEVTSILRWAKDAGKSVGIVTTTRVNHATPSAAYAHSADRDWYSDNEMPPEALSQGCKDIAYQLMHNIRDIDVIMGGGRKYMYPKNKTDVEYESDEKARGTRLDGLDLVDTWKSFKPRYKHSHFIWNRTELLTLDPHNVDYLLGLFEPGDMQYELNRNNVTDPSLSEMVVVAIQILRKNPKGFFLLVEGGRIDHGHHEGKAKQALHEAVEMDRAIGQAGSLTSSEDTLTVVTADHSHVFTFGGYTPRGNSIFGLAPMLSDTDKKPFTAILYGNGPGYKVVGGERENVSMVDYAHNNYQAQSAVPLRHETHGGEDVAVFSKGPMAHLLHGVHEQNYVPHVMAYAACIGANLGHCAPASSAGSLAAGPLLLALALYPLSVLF
Put plainly: potency against alkaline phosphatase TNAP – biochemical, luminescent, dose response, SAR follow-up (AID 1056).

A short description of assay [18]: A cytotoxicity screen of small molecule inhibitors of the PhoP region in Salmonella typhi identified in the primary screen. [Related pubchem assays: 1850, 1864, 1985 ]. The class given is functional.

Sequence of Procathepsin L (P07711 whole entry): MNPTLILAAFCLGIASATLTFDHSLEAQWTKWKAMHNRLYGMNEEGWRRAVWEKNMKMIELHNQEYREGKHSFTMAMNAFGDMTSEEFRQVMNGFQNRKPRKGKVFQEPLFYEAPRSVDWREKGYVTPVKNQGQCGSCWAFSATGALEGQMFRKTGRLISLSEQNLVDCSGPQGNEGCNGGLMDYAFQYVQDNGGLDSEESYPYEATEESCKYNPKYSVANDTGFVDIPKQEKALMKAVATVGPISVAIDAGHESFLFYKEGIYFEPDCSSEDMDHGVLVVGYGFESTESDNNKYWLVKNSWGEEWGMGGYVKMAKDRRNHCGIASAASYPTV
Sequence of Glyceraldehyde-3-phosphate dehydrogenase (P04406 whole entry): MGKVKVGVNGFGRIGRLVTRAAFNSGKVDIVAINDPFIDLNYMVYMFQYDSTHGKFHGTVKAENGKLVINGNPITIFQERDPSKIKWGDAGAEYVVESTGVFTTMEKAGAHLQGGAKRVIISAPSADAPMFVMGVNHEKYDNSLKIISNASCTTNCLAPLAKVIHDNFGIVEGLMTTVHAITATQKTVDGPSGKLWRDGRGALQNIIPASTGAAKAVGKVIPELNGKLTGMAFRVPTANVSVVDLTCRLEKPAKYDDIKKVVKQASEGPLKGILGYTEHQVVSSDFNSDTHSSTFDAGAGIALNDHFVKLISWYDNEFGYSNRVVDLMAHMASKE
Sequence of Cytochrome P450 2C9 (P11712 whole entry): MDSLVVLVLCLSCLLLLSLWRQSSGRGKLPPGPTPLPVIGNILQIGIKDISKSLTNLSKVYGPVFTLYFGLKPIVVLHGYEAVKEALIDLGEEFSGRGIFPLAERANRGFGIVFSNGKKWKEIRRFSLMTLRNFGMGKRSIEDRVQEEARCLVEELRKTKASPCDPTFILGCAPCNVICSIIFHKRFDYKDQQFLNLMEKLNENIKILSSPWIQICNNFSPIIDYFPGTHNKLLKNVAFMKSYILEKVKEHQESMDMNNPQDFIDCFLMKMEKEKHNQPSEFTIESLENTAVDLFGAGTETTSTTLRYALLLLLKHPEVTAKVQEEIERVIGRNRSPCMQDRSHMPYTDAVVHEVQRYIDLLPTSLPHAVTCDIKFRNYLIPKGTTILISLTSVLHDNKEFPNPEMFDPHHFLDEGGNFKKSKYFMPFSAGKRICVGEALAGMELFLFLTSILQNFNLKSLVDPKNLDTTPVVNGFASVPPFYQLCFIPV
Sequence of Cytochrome P450 3A4 (P08684 whole entry): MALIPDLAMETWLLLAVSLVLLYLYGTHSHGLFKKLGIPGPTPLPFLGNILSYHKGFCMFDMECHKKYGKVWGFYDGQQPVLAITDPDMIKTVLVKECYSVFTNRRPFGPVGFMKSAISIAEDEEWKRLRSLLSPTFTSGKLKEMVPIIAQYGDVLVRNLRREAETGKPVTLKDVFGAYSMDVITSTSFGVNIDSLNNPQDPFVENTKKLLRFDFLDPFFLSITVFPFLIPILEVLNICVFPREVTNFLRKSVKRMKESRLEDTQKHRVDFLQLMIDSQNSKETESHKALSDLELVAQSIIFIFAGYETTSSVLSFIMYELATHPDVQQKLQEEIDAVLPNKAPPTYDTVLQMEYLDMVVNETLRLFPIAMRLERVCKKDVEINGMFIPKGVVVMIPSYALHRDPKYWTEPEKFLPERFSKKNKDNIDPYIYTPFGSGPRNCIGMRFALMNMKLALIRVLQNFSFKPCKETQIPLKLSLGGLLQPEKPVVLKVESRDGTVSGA
Sequence of Alkaline phosphatase, placental type (P05187 whole entry): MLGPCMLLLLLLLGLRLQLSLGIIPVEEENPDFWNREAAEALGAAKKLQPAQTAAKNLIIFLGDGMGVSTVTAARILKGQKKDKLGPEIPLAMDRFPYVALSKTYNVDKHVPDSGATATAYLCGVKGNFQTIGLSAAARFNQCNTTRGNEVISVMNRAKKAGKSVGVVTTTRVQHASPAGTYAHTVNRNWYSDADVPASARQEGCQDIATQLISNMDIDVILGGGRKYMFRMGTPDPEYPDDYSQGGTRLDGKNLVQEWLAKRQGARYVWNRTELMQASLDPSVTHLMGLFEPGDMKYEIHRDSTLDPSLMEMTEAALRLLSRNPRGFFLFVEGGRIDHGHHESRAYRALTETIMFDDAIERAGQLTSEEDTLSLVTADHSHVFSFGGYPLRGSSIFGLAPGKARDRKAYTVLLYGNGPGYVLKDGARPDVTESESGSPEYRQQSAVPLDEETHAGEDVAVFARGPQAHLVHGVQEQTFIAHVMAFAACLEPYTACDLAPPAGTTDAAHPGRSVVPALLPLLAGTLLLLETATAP
Sequence of Luciferin 4-monooxygenase (P08659 whole entry): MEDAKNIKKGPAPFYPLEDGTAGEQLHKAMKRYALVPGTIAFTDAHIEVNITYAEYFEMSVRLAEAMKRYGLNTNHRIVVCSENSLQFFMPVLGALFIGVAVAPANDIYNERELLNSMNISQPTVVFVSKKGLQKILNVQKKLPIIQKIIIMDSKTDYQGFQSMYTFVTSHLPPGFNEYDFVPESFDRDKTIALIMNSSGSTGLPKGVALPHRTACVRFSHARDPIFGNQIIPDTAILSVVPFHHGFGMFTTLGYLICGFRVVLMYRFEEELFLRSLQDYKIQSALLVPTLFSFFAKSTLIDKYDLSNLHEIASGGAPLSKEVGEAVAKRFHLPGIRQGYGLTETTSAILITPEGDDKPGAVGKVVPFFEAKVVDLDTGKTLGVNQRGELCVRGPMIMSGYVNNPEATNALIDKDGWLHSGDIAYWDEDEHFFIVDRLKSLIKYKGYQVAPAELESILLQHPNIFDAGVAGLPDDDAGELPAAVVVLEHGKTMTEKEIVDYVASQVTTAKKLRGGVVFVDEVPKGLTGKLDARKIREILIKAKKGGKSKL

With `Cc1nn(-c2cc(C(F)(F)F)ccc2Cl)c2nc(C(F)(F)F)nc(O)c12`, the half-maximal inhibitory concentration (IC50) in assay [1] is 22.5 µM (active).
In the case of `COc1cccc(/C=C2\N=C(c3c(-c4ccccc4)noc3C)OC2=O)c1OC`, the half-inhibitory concentration (IC50) on Estrogen receptor was > 50 µM (not active).
`CCOC(=O)c1ccc(N2C(=O)CC(SCC(=O)Nc3ccc(S(N)(=O)=O)cc3)C2=O)cc1` (configuration not stated): the IC50 in [2] is 28.1 µM (active).
On to `CN(CCO)c1ccc(/C=N/Nc2nncc3ccccc23)cc1`, for which the EC50 in the assay with BJ [3] is > 150 µM (not active); in the assay with BJ [4] it was 10.8 µM (active); in [5], 0.67 µM (active); in assay [6], 0.533 µM (active); in the assay with BJ [8], > 150 µM (not active); in assay [9], 4.01 µM (active). Also, the half-maximal inhibitory concentration (IC50) in assay [7] is reported as 24.7 µM (not active).
Take `CCc1ccc(NC(=O)c2cnn3ccccc23)cc1`: the figures for the IC50 (in [7]; in the assay “cells [10]”; in assay [11]) were > 39.8 µM (not active), > 67.5 µM (inactive) and > 0.0926 µM (active), respectively. The EC50 (in [12]; in the assay “cells [13]”) was > 67.5 µM (inactive) in each case.
In the case of `COc1cccc(-c2cc(C(=O)Nn3cnnc3)c3ccccc3n2)c1`, the IC50 was 1.87 µM (active) on Aspartyl aminopeptidase and > 59.6 µM (not active) at Procathepsin L.
On to `CC(C)CNC(=O)c1cc(-c2ccc(Cl)cc2Cl)n[nH]1`, for which, in assay [14], the half-inhibitory concentration (IC50) was > 10 µM (inconclusive).
For `CCOC(=O)c1c(-c2ccc(C)o2)csc1NC(=S)NC(=O)c1ccccc1Br`, the half-inhibitory concentration (IC50) in assay [1] is 37.3 µM (active).
On to `Cc1cc(C)n(CC(O)COc2ccccc2)n1` (configuration not stated), for which the IC50 against Estrogen receptor was > 50 µM (not active). The values for the half-maximal activity concentration (AC50) on Cytochrome P450 1A2, at Cytochrome P450 3A4 and on Cytochrome P450 2C9 were 15.8 µM (inconclusive), 15.8 µM (inconclusive) and 0.0355 µM (inconclusive), respectively.
As to `CN(Cc1nc(O)c2ccccc2n1)C(=O)c1cc(C2CC2)nn1-c1ccccc1`, the IC50 in “cells [15]” was 21.6 µM (active).
As for `O=C(c1cc(-c2ccc(Cl)cc2Cl)n[nH]1)N1CCCC1`, the 50% inhibitory concentration (IC50) in [14] is > 100 µM (not active); in assay [16], > 100 µM (inactive); in assay [17], 6.57 µM (active).
Regarding `O=C(NCc1ccccc1Cl)C1CCN(S(=O)(=O)c2cccc3nonc23)CC1`, the IC50 in the assay “cells [15]” was 27.2 µM (active).
Take `Cc1cc(C)c2nc(N=C(N)NC(=O)c3ccccc3)nc(C)c2c1`: the EC50 in assay [18] is > 50 µM (active).
Still for that read-out and setting: to `COCCn1c(SCC(=O)Nc2nnc(C)s2)nnc1-c1c[nH]c2ccccc12` belongs > 50 µM (active).
Consider `Cc1cc(OCC(=O)Nn2cnnc2)ccc1Br`, for which the values for the half-maximal inhibitory concentration (IC50) at Aspartyl aminopeptidase and against Procathepsin L were 2.55 µM (active) and > 59.6 µM (not active), respectively.
